{"source": "patent US20100292229A1", "about": "“TRYPHOSTIN-ANALOGS FOR THE TREATMENT OF CELL PROLIFERATIVE DISEASES” (The Board of Regents of the University of Texas System, priority 2006, published 2010)", "key": {"[1]": {"target": "T1, HA-tagged c-myc (Homo sapiens, UniProt P01106)", "T1 construct": "labeled at the termini as 1 and 439; expressed in transfected cells; host or cells: HeLa", "T1 sequence (P01106 16-454)": "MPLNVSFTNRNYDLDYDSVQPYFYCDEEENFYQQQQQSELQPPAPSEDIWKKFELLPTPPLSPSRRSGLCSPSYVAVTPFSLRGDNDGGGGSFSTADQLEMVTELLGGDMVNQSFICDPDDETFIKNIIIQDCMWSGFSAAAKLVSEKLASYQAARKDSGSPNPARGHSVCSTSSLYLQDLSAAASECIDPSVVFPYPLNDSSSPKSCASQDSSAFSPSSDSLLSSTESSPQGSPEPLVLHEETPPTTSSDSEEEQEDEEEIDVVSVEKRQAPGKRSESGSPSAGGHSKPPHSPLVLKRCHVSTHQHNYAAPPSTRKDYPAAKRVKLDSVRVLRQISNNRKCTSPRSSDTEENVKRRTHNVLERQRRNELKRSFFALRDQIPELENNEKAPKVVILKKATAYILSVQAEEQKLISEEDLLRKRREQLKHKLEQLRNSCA", "experiment": "HA-tagged c-myc stability in transfected HeLa cells", "assay_type": "cell-based", "details": "1 h treatment", "protocol": "Bottom: Expression vectors for HA-tagged c-myc or HA-tagged IKKγ (tagged at the N-terminus) were transfected (at the DNA content indicated) into HeLa cells as described in the methods section above. Twenty-four h later, cells were treated with Degrasyn for 1 h before harvesting cells, extracting protein and subjecting equal protein lysates to immunoblotting for c-myc (left) or IKKγ (right) using an HA-directed antibody. Actin was immunoblotted as a control for protein loading. […] These cells and transfection system were used to map the domains important for Degrasyn mediated destabilization by deletion analysis (FIG. 20).\nAnalysis of wild-type and mutant (deleted) c-myc protein stability. A c-myc expression vector (pCGN-MYC) was obtained from Dr. William Tansey (Cold Springs Harbor, N.Y.) and initially used to transfect HeLa cancer cells (with the SN2 cationic lipid). In subsequent studies, the c-myc gene was subcloned downstream of the HA antigen in the pcDNA3.1 vector, allowing efficient detection of transfected c-myc by anti-HA immunoblotting. Multiple site-specific mutations and domain deletions were introduced into the c-myc gene using the Stratagene Quickchange II XL kit and specific dual primer sets. The deletions/mutations were verified by direct sequencing before use. […]"}, "[2]": {"test_system": "K562 cells", "experiment": "MTT assay of cell growth and survival, K562 cells", "assay_type": "cell-based, human", "details": "FIG. 21; anti-tumor activity", "protocol": "All compounds are tested for purity (HPLC, NMR) and the calculated molecular weight is used to make up a 10 mM stock solution of each compound (in 100% dimethylsulfoxide or 50% dimethylsulfoxide:50% polyethylene glycol 300). Compounds are diluted into cell culture media consisting of RPMI 1640 with 10% fetal bovine serum to a final starting concentration of 10 μM. [Highest final DMSO content=0.1%.]. Tumor cells (20,000 for non-adherent cells; 5,000 for adherent cells) are plated into individual wells of a 96-well culture plate in 0.1 ml of culture media. Diluted compounds are added to individual wells containing pre-plated cells (final volume 0.2 ml) and incubated at 37° C. for 24 to 72 h. Wells receiving vehicle alone acted as a control.\nMTT (viability) assay. MTT reagent (20 μl of 5 mg/ml stock solution, Sigma) is added to the cells and the plates are incubated at 37° C. for another 2 h. Cells are lysed by adding 100 μl of lysis buffer (20% SDS in 50% N,N-dimethylformamide (Sigma) adjusted to pH 4.7 by 80% acetic acid and 1 M HCl such that the final concentration of acetic acid is 2.5% and HCl is 2.5%) into each well and incubated for 6 h. The OD570 of each sample is determined by using a SPECTRA MAX M2 plate reader (Molecular Devices). The OD in control and treated wells is used as an estimate of the effect of compounds on cell growth and survival.\nCell lines. […]"}, "[3]": {"test_system": "CML cells expressing the T315I mutant BCR-ABL", "experiment": "Clonal outgrowth of CML cells from imatinib resistant patients", "assay_type": "cell-based, human", "details": "cells of 2 patients that failed imatinib therapy", "from_the_text": "Isolation of cellular fractions from clinical specimens. Mononuclear cells were isolated from peripheral blood or bone marrow of imatinib-resistant CML patients after informed consent was obtained for a protocol reviewed and approved by the Institutional Review Board of M.D. Anderson Cancer Center. Cells were purified on Ficoll-Hypaque gradients."}}, "data": [{"smiles": "CCC[C@H](NC(=O)/C(C#N)=C/c1cccc(Br)n1)c1ccccc1", "note": "[Degrasyn]", "values": [{"measurement": "HA-tagged c-myc and HA-tagged IKKγ levels", "setting": "[1]", "value": "reduced HA-tagged c-myc but did not affect HA-tagged IKKγ"}, {"measurement": "IC50", "setting": "[2]", "value": 2.8, "unit": "µM"}, {"measurement": "Colony formation of leukemic cells", "setting": "[3]", "value": "more effective than imatinib in suppressing colony formation"}]}]}
